In paper PMC13198257, “An aerosolized dual-action autotaxin inhibitor-PPARγ agonist for the treatment of pulmonary fibrosis” (Cell Reports Medicine, 2026):

Tested on: lung gene expression
Assay: RNA sequencing of lung tissue (BLM/EL244 vs BLM)
Assay type: in vivo, mouse
Procedure: RNA quality was assessed using an Agilent TapeStation 4150 with the High Sensitivity […] ScreenTape (Agilent), according to the manufacturer’s protocols. For library preparation, the QuantSeq 3’mRNA-Seq Library Prep Kit (Lexogen) was used according to manufacturer’s instructions. Briefly, 500 ng of RNA from each sample was used for first-strand synthesis, followed by RNA template removal, and second-strand synthesis initiated by random primers. In-line barcodes were introduced at this step, and this was followed by magnetic bead-based purification. The resulting libraries were amplified for 15 cycles and re-purified, with quantity and quality assessed on a Qubit 4 Fluorometer with the Invitrogen Qubit dsDNA HS Assay and an Agilent Tapestation 4150 with the High Sensitivity D1000 assay kit, respectively. The quantified libraries were pooled equimolarly; 50ng of total library mix was used for Adapter Conversion PCR Amplification using the Universal Library Conversion Kit (App-A), Version: V1.0 (MGI Tech Co., Ltd.), according to the manufacturer’s instructions.
The quantity and quality of the purified adapter conversion PCR (AC-PCR) product were evaluated on a Qubit 4 Fluorometer with the Invitrogen Qubit dsDNA HS Assay and on an Agilent Tapestation 4150 with the High Sensitivity D1000 assay kit, respectively. This was followed by DNA denaturation, Single-Strand Circularisation, Enzymatic Digestion, Enzymatic Digestion Product Cleanup and Quality Control steps on 1 pmol of AC-PCR product, according to the Universal Library Conversion Kit (App-A) User Manual (Version: A3).
Finally, 60 fmol of ssCirDNA were used for DNB preparation and sequencing on a DNBSEQ-G400 platform at the BSRC Alexander Fleming Genomics Facility, using a G400 App-A FCS SE100 High-throughput Sequencing Set (MGI Tech Co., Ltd.), according to the manufacturer’s instructions.
Alignment of the FASTQ files was performed against the mouse genome build mm10 using a custom Bash script.[143] Read counting on the 3′ UTRs and differential expression analysis were conducted using the metaseqR2 bioconductor package.[144] Genes corresponding to the following biotypes were excluded: polymorphic_pseudogene, processed_transcript, pseudogene, IG_V_pseudogene, misc_RNA, IG_C_gene, IG_J_gene, IG_D_gene, IG_LV_gene, TR_V_gene, TR_V_pseudogene, TEC, and processed_pseudogene. Gene counts were normalized with DESEQ[145] through metaseqR2. Genes with more than 10 counts in at least 50% of the samples were kept for further processing. For differential expression analysis, the PANDORA algorithm[146] was used to estimate a meta p-value integrating the results from the DESEQ, DESEQ2,[147] edgeR,[148] limma,[149] NBPSeq,[150] and NOISeq[151] algorithms. All additional parameters were set to default values.
Pathway enrichment analysis was performed for the Gene Ontology Biological process (BP) and Molecular Function (MF) terms through GeneCodis 4.[152] The volcano plots, scatterplots, Venn diagrams, and dot plots were generated using the ggplot2 Bioconductor package.

Compound: O=C1NC(=O)C(Cc2ccc(OCCC3CCN(C(=O)OCc4cc(Cl)cc(Cl)c4)CC3)cc2)S1 (stereo not shown) [EL244, 3,5-dichlorobenzyl 4-(2-(4-((2,4-dioxothiazolidin-5-yl)methyl)phenoxy)ethyl)piperidine-1-carboxylate]
- Ear1 log2 nFC BLM/EL244 vs BLM (DEG Ear1, nFC: normalised fold change): 1.11
- Ednrb log2 nFC BLM/EL244 vs BLM (DEG Ednrb, nFC: normalised fold change): 0.97
- Elmod1 log2 nFC BLM/EL244 vs BLM (DEG Elmod1, nFC: normalised fold change): 0.89
- Eml5 log2 nFC BLM/EL244 vs BLM (DEG Eml5, nFC: normalised fold change): 1.41
- Eng log2 nFC BLM/EL244 vs BLM (DEG Eng, nFC: normalised fold change): 0.81
- Errfi1 log2 nFC BLM/EL244 vs BLM (DEG Errfi1, nFC: normalised fold change): 0.95
- Esm1 log2 nFC BLM/EL244 vs BLM (DEG Esm1, nFC: normalised fold change): 1.28
- Fabp3 log2 nFC BLM/EL244 vs BLM (DEG Fabp3, nFC: normalised fold change): 0.98
- Fabp12 log2 nFC BLM/EL244 vs BLM (DEG Fabp12, nFC: normalised fold change): 1.43
- Faim2 log2 nFC BLM/EL244 vs BLM (DEG Faim2, nFC: normalised fold change): 2.03
- Fam71f2 log2 nFC BLM/EL244 vs BLM (DEG Fam71f2, nFC: normalised fold change): 1.96
- log2 nFC BLM/EL244 vs BLM (DEG Fcgr1): -1.30
- log2 nFC BLM/EL244 vs BLM (DEG Fcrls): -1.35
- log2 nFC BLM/EL244 vs BLM (DEG Fgf13): -1.40
- log2 nFC BLM/EL244 vs BLM (DEG Fkbp10): -1.25
- Fmo1 log2 nFC BLM/EL244 vs BLM (DEG Fmo1, nFC: normalised fold change): 0.86
- Fmo2 log2 nFC BLM/EL244 vs BLM (DEG Fmo2, nFC: normalised fold change): 1.00
- Fosb log2 nFC BLM/EL244 vs BLM (DEG Fosb, nFC: normalised fold change): 2.38
- log2 nFC BLM/EL244 vs BLM (DEG Foxm1): -1.56
- Fxyd1 log2 nFC BLM/EL244 vs BLM (DEG Fxyd1, nFC: normalised fold change): 0.80
- Fzd4 log2 nFC BLM/EL244 vs BLM (DEG Fzd4, nFC: normalised fold change): 0.69
- Galnt15 log2 nFC BLM/EL244 vs BLM (DEG Galnt15, nFC: normalised fold change): 0.89
- log2 nFC BLM/EL244 vs BLM (DEG Gas2l3): -1.32
- Ggt1 log2 nFC BLM/EL244 vs BLM (DEG Ggt1, nFC: normalised fold change): 1.91
- log2 nFC BLM/EL244 vs BLM (DEG Gins2): -1.57
- Gm867 log2 nFC BLM/EL244 vs BLM (DEG Gm867, nFC: normalised fold change): 2.18
- Gm4956 log2 nFC BLM/EL244 vs BLM (DEG Gm4956, nFC: normalised fold change): 1.08
- Gm9780 log2 nFC BLM/EL244 vs BLM (DEG Gm9780, nFC: normalised fold change): 2.06
- Gm14964 log2 nFC BLM/EL244 vs BLM (DEG Gm14964, nFC: normalised fold change): 1.87
- Gm20186 log2 nFC BLM/EL244 vs BLM (DEG Gm20186, nFC: normalised fold change): 1.31
- Gm26236 log2 nFC BLM/EL244 vs BLM (DEG Gm26236, nFC: normalised fold change): 1.03
- Gm42722 log2 nFC BLM/EL244 vs BLM (DEG Gm42722, nFC: normalised fold change): 1.79
- Gm47291 log2 nFC BLM/EL244 vs BLM (DEG Gm47291, nFC: normalised fold change): 0.98
- Gm49353 log2 nFC BLM/EL244 vs BLM (DEG Gm49353, nFC: normalised fold change): 2.21
- Gm49391 log2 nFC BLM/EL244 vs BLM (DEG Gm49391, nFC: normalised fold change): 0.96
- Gnao1 log2 nFC BLM/EL244 vs BLM (DEG Gnao1, nFC: normalised fold change): 0.85
- Gnmt log2 nFC BLM/EL244 vs BLM (DEG Gnmt, nFC: normalised fold change): 1.14
- Gpm6a log2 nFC BLM/EL244 vs BLM (DEG Gpm6a, nFC: normalised fold change): 0.83
- Gpr155 log2 nFC BLM/EL244 vs BLM (DEG Gpr155, nFC: normalised fold change): 0.76
- Gprasp1 log2 nFC BLM/EL244 vs BLM (DEG Gprasp1, nFC: normalised fold change): 0.72
- Gpt log2 nFC BLM/EL244 vs BLM (DEG Gpt, nFC: normalised fold change): 0.73
- Gria1 log2 nFC BLM/EL244 vs BLM (DEG Gria1, nFC: normalised fold change): 1.61
- Gsn log2 nFC BLM/EL244 vs BLM (DEG Gsn, nFC: normalised fold change): 1.06
- Gsta3 log2 nFC BLM/EL244 vs BLM (DEG Gsta3, nFC: normalised fold change): 1.10
- Gstm1 log2 nFC BLM/EL244 vs BLM (DEG Gstm1, nFC: normalised fold change): 0.75
- log2 nFC BLM/EL244 vs BLM (DEG Gtse1): -1.49
- log2 nFC BLM/EL244 vs BLM (DEG Gxylt2): -1.47
- Gzma log2 nFC BLM/EL244 vs BLM (DEG Gzma, nFC: normalised fold change): 1.70
- log2 nFC BLM/EL244 vs BLM (DEG H2ac11): -1.45
- log2 nFC BLM/EL244 vs BLM (DEG H2ac12): -1.44
- Hba-a1 log2 nFC BLM/EL244 vs BLM (DEG Hba-a1, nFC: normalised fold change): 1.21
- Hba-a2 log2 nFC BLM/EL244 vs BLM (DEG Hba-a2, nFC: normalised fold change): 1.14
- Hbb-bs log2 nFC BLM/EL244 vs BLM (DEG Hbb-bs, nFC: normalised fold change): 1.10
- Hbb-bt log2 nFC BLM/EL244 vs BLM (DEG Hbb-bt, nFC: normalised fold change): 1.09
- log2 nFC BLM/EL244 vs BLM (DEG Hells): -1.30
- Hhatl log2 nFC BLM/EL244 vs BLM (DEG Hhatl, nFC: normalised fold change): 2.05
- Hlf log2 nFC BLM/EL244 vs BLM (DEG Hlf, nFC: normalised fold change): 0.89
- Igf1r log2 nFC BLM/EL244 vs BLM (DEG Igf1r, nFC: normalised fold change): 0.70
